In publication PMC3954451 (Journal of Medicinal Chemistry, 2014):

What was measured:
[1] = cited from earlier work
Caco-2 cells [2] = settings: cited from earlier work
Caco-2 cells [3] = settings: 10 μM, 2 h

membrane permeability in the apical to basolateral (A→B) direction, in words (Caco-2 cells [3])	Compound	further results
–	Nc1ccccn1 [2-aminopyridine]	pKa [1]: 7.1
–	Cl.Cl.N=C(Nc1cccc(CNCCc2cccc(F)c2)c1)c1cccs1 [Compound 3]	Caco-2 permeability, in words (Caco-2 cells [2]): poor
good	Cl.Cl.Nc1ccc2ccc(CCNCCc3cccc(F)c3)cc2n1 [Compound 7, 7-[(3-Fluorophenethylamino)ethyl]quinolin-2-amine Dihydrochloride]	–
good	Cl.Cl.Cl.Nc1ccc2ccc(CCNCCc3cccc(Cl)c3)cc2n1 [Compound 15, 7-[(3-Chlorophenethylamino)ethyl]quinolin-2-amine Dihydrochloride]	–
